# Assay results reported in ChEMBL document CHEMBL1240454, “1,3-Dioxolane-based ligands incorporating a lactam or imide moiety: structure-affinity/activity relationship at alpha1-adrenoceptor subtypes and at 5-HT1A receptors” (Eur J Med Chem, 2010).
# What was measured:
# [1] = species: Rattus norvegicus; experiment: Selectivity for adrenergic Alpha-1B receptor in Wistar rat spleen over adrenergic alpha1D receptor in Wistar rat thoracic aorta; format: tissue-based
# [2] = biological target: T1, Alpha-1D adrenergic receptor (Homo sapiens, UniProt P25100)
# T1 sequence (P25100 whole entry): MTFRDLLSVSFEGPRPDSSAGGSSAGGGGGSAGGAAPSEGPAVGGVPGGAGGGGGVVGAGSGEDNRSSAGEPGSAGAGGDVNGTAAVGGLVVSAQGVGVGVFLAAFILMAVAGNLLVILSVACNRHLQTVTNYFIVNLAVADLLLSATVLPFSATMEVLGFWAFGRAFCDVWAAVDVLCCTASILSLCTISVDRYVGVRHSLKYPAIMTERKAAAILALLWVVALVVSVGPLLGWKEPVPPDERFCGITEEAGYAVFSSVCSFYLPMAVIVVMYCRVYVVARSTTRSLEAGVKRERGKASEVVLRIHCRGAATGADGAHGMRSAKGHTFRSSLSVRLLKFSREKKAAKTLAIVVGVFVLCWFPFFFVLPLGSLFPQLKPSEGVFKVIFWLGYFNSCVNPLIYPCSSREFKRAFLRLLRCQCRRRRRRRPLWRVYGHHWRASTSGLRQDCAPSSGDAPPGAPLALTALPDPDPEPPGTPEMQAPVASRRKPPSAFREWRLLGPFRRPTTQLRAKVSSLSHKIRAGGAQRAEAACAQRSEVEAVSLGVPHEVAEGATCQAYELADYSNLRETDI
# Description: Displacement [3H]prazosin of human recombinant Alpha-1D adrenergic receptor expressed in CHO cells by rapid filtration technique
# [3] = biological target: T2, Alpha-1D adrenergic receptor (Rattus norvegicus) (UniProt P23944); experiment: Antagonist activity at adrenergic Alpha-1D receptor in Wistar rat thoracic aorta assessed as inhibition of (-)-norepinephrine-induced vasocontraction treated 30 mins before (-)norepinephrine challenge; format: functional, tissue-based
# T2 sequence (whole entry): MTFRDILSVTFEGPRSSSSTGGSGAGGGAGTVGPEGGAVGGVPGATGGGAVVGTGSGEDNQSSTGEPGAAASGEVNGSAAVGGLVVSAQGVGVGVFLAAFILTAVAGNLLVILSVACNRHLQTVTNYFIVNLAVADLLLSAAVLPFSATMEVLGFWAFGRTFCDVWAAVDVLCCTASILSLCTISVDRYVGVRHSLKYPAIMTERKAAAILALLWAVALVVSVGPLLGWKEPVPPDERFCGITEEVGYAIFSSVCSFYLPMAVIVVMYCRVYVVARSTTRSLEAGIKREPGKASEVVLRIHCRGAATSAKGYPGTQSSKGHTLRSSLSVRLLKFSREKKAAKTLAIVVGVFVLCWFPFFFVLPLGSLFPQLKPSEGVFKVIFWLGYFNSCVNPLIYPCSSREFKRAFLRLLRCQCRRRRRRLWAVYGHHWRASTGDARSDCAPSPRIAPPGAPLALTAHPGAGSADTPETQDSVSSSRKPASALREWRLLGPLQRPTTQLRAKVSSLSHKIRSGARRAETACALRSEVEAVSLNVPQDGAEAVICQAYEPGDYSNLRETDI
# [4] = biological target: T3, Alpha-1A adrenergic receptor (Rattus norvegicus) (UniProt P43140); experiment: Antagonist activity at adrenergic alpha1A receptor in Wistar rat prostatic vas deferens assessed as inhibition of (-)-noradrenaline-induced tissue contraction treated 30 mins before (-)noradrenalin challenge; format: functional, tissue-based
# T3 sequence (whole entry): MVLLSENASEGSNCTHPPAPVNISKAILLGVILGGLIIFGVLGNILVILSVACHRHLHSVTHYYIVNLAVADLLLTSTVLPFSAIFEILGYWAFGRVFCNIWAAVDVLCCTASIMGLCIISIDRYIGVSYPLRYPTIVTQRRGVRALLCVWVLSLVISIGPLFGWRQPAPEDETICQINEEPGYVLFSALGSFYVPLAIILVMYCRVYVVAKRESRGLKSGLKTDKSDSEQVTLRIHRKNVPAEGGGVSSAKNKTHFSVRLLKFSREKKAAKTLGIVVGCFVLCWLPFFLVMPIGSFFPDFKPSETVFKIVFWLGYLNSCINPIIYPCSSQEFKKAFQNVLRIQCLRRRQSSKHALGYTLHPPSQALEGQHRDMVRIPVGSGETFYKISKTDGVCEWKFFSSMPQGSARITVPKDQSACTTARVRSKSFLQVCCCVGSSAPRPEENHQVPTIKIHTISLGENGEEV
# [5] = biological target: T4, 5-hydroxytryptamine receptor 1A (Homo sapiens, UniProt P08908)
# T4 sequence (P08908 whole entry): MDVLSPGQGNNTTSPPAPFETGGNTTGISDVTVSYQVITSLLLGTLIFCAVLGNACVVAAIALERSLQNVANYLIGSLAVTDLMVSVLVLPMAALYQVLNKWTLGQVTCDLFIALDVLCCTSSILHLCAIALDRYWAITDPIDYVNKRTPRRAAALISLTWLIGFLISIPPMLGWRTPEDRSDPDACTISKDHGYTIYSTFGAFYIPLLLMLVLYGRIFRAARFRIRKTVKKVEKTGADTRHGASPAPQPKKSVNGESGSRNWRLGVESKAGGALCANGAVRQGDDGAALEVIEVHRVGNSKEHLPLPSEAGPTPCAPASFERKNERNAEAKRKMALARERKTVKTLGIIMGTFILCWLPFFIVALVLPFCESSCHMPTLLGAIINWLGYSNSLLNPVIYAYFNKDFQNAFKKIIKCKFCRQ
# [6] = biological target: T5, Alpha-1A adrenergic receptor (Homo sapiens, UniProt P35348)
# T5 sequence (P35348 whole entry): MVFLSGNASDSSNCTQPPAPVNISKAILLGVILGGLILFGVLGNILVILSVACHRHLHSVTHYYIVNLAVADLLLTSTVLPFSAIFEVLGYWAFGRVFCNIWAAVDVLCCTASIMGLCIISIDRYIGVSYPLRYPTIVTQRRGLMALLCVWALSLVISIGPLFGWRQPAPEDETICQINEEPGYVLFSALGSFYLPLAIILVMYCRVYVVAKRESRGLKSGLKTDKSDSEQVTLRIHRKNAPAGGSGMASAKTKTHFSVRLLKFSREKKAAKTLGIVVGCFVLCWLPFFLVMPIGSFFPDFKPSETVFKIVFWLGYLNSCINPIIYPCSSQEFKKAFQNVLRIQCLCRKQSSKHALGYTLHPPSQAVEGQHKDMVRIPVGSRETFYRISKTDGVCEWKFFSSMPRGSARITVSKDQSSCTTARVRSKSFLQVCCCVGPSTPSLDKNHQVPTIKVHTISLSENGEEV
# Description: Displacement [3H]prazosin of human recombinant alpha1A adrenergic receptor expressed in CHO cells by rapid filtration technique
Ki [2],pKb [3],pKb [4],Ki [5],Ki [6],SMILES,Selectivity ratio [1]
0.813 nM,8.14,8.24,22.9 nM,0.263 nM,COc1ccccc1N1CCN(CC2OCC(c3ccccc3)(c3ccccc3)O2)CC1 (stereo not drawn),28
14.1 nM,6.74,7.3,5.25 nM,0.871 nM,COc1ccccc1N1CCN(C[C@H]2CO[C@@](CN3CCCCC3=O)(c3ccccc3)O2)CC1,0.06
1.38 nM,8.51,7.29,1.26 nM,10 nM,COc1ccccc1N1CCN(C[C@@H]2CO[C@@](CN3C(=O)CC4(CCCC4)CC3=O)(c3ccccc3)O2)CC1 (relative stereo),11
13.5 nM,6.79,7.94,6.92 nM,1.38 nM,COc1ccccc1N1CCN(C[C@H]2CO[C@](CN3CCCC3=O)(c3ccccc3)O2)CC1 (relative stereo),0.03
5.25 nM,7.43,7.34,11.2 nM,12.6 nM,COc1ccccc1N1CCN(C[C@@H]2CO[C@](CN3CCCC3=O)(c3ccccc3)O2)CC1 (relative stereo),0.1
1.48 nM,7.29,7.32,5.13 nM,11.5 nM,COc1ccccc1N1CCN(C[C@@H]2CO[C@@](CN3CCCCC3=O)(c3ccccc3)O2)CC1 (relative stereo),0.1
4.07 nM,7.57,8.97,5.62 nM,0.631 nM,COc1ccccc1N1CCN(C[C@H]2CO[C@@](CN3CCCCCC3=O)(c3ccccc3)O2)CC1 (relative stereo),0.1
2.51 nM,7.75,7.18,7.24 nM,26.9 nM,COc1ccccc1N1CCN(C[C@@H]2CO[C@@](CN3CCCCCC3=O)(c3ccccc3)O2)CC1 (relative stereo),0.5
39.8 nM,6.42,7.45,5.13 nM,2.88 nM,COc1ccccc1N1CCN(C[C@H]2CO[C@@](CN3C(=O)CCC3=O)(c3ccccc3)O2)CC1 (relative stereo),0.2
16.2 nM,7.78,7.32,25.7 nM,40.7 nM,COc1ccccc1N1CCN(C[C@@H]2CO[C@@](CN3C(=O)CCC3=O)(c3ccccc3)O2)CC1 (relative stereo),5
32.4 nM,6.19,7.09,3.16 nM,6.61 nM,COc1ccccc1N1CCN(C[C@H]2CO[C@@](CN3C(=O)CCCC3=O)(c3ccccc3)O2)CC1 (relative stereo),0.1
8.51 nM,7.57,7.36,44.7 nM,21.4 nM,COc1ccccc1N1CCN(C[C@@H]2CO[C@@](CN3C(=O)CCCC3=O)(c3ccccc3)O2)CC1 (relative stereo),2
4.79 nM,6.78,7.72,2.63 nM,2.04 nM,COc1ccccc1N1CCN(C[C@H]2CO[C@@](CN3C(=O)CC4(CCCC4)CC3=O)(c3ccccc3)O2)CC1 (relative stereo),0.2
